Molecular target: T1, IDH1 mutant (R132H) (Homo sapiens, UniProt O75874, R132H)
T1 construct: purchased BPS Bioscience 71099-2
Test: Mutant IDH1-R132H Fluorescence Assay (Resazurin based)
Type: biochemical
Conditions: 10 nM IDH1 R132H, 4 mM α-ketoglutarate, NADPH, 1.5 h at room temperature
Protocol: IC50 values of compounds against IDH1 mutant (R132H) was determined by Resazurin based Fluorescence assay. Assays were performed in Buffer (25 mM Tris HCl, 150 mM NaCl, 10 mM MgCl2, 0.03% BSA, 2 mM 1-mercaptoethanol) where total reaction volume was 12.5 μL in low-volume 384-well plates (Cat #4511, Corning). Serially diluted compounds (3-fold) were incubated with cocktail of α-ketoglutarate (4 mM; Cat #75892-25G, Sigma), NADPH ([…]; Cat # N1630-100MG, Sigma) and buffer for 5 min, following IDH1 R132H mutant (10 nM; Cat #71099-2, BPS Bioscience) was added and incubated in dark at room temperature for 1.5 h. After 1.5 h, 6.25 μL detection solution containing Resazurin ([…]; (Cat #62758-13-8, Sigma) and Diaphorase (40 ug/ml; Cat # D2197-300UN, Sigma) in buffer was added and incubated for 15 min. Readings were taken in a Synergy Neo Plate reader (BioTek, Winooski) at single excitation of 540 nm and emission at 590 nm respectively.
The % (percent) activity of test samples was calculated as (Sample−Min)×100/(Max−Min). [Max: DMSO control, complete reaction with enzyme with DMSO and Min: No enzyme with DMSO]. Percent inhibition (100−% activity) was fitted to the “four-parameter logistic model” in XLfit for determination of IC50 values.

T1 sequence (O75874 whole entry R132H): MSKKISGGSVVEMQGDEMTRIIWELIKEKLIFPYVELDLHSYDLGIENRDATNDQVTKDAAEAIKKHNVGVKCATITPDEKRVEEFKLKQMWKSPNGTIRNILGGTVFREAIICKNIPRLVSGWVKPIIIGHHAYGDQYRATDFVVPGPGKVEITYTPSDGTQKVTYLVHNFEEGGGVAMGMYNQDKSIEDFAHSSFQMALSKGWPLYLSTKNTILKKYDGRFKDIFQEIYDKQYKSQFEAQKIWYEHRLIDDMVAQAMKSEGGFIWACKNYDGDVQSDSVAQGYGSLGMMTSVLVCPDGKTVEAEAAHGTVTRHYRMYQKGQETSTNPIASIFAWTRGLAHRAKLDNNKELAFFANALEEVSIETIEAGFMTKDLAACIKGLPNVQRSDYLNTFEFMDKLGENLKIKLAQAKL

IC50	SMILES
5.95 µM	CC[C@H]1COC(=O)N1c1nc(C)nc(N[C@@H](C)c2ccc(Oc3ccccc3)nc2)n1 [Compound 1.77, (S)-4-ethyl-3-(4-methyl-6-((S)-1-(6-phenoxypyridin-3-yl)ethylamino)-1,3,5-triazin-2-yl)oxazolidin-2-one]
> 30 µM	CC[C@H]1COC(=O)N1c1nc(C)nc(N[C@H](C)c2ccc(Oc3ccc4ccccc4c3)cc2)n1 [Compound 1.93, (S)-4-ethyl-3-(4-methyl-6-((R)-1-(4-(naphthalen-2-yloxy)phenyl)ethylamino)-1,3,5-triazin-2-yl)oxazolidin-2-one]
> 30 µM	CC[C@H]1COC(=O)N1c1nc(C)nc(N[C@H](C)c2ccc(Nc3ccccc3)cc2)n1 [Compound 1.88, (S)-4-ethyl-3-(4-methyl-6-((R)-1-(4-(phenylamino)phenyl)ethylamino)-1,3,5-triazin-2-yl)oxazolidin-2-one]
> 30 µM	CC(C)[C@H]1COC(=O)N1c1ncnc(N[C@H](C)c2ccc(Oc3ccccc3)cn2)n1 [Compound 1.18, (S)-4-isopropyl-3-(4-((R)-1-(5-phenoxypyridin-2-yl)ethylamino)-1,3,5-triazin-2-yl)oxazolidin-2-one]
> 23.3 µM	CC[C@H]1COC(=O)N1c1nc(C)nc(N[C@H](C)c2ccc(Oc3ccccc3)cn2)n1 [Compound 1.76, (S)-4-ethyl-3-(4-methyl-6-((R)-1-(5-phenoxypyridin-2-yl)ethylamino)-1,3,5-triazin-2-yl)oxazolidin-2-one]
> 30 µM	CC[C@H]1COC(=O)N1c1nc(C)nc(N[C@@H](C)c2cc3cc(Cl)cnc3[nH]c2=O)n1 [Compound 1.49, (S)-3-(4-((S)-1-(6-chloro-2-oxo-1,2-dihydro-1,8-naphthyridin-3-yl)ethylamino)-6-methyl-1,3,5-triazin-2-yl)-4-ethyloxazolidin-2-one]
> 30 µM	CC[C@H]1COC(=O)N1c1nc(C)nc(N[C@@H](C)c2cnc3ccc(Cl)nn23)n1 [Compound 1.69, (S)-3-(4-((S)-1-(6-chloroimidazo[1,2-b]pyridazin-3-yl)ethylamino)-6-methyl-1,3,5-triazin-2-yl)-4-ethyloxazolidin-2-one]
> 30 µM	CC[C@H]1COC(=O)N1c1nc(C)nc(N[C@H](C)c2cc3cc(C)ccc3[nH]c2=O)n1 [Compound 1.109, (S)-4-ethyl-3-(4-methyl-6-((R)-1-(6-methyl-2-oxo-1,2-dihydroquinolin-3-yl)ethylamino)-1,3,5-triazin-2-yl)oxazolidin-2-one]
> 30 µM	Cc1nc(N[C@H](C)c2cc3cc(Cl)ccc3[nH]c2=O)nc(N2C(=O)OC[C@@H]2[C@H](C)F)n1 [Compound 1.60, (R)-3-(4-((R)-1-(6-chloro-2-oxo-1,2-dihydroquinolin-3-yl)ethylamino)-6-methyl-1,3,5-triazin-2-yl)-4-((S)-1-fluoroethyl)oxazolidin-2-one]
2.51 µM	CC[C@H]1COC(=O)N1c1nc(C)nc(NC(C)(C)c2ccc(Oc3ccccc3)cc2)n1 [Compound 1.111, (S)-4-ethyl-3-(4-methyl-6-(2-(4-phenoxyphenyl)propan-2-ylamino)-1,3,5-triazin-2-yl)oxazolidin-2-one]
2.44 µM	CC[C@H]1COC(=O)N1c1nc(N[C@@H](C)c2ccc(Oc3ccccc3)cc2)nc(C2CC2)n1 [Compound 1.71, (S)-3-(4-cyclopropyl-6-((S)-1-(4-phenoxyphenyl)ethylamino)-1,3,5-triazin-2-yl)-4-ethyloxazolidin-2-one]
> 30 µM	CC[C@H]1COC(=O)N1c1nc(C)nc(N[C@@H](C)c2ccc(Oc3cccnc3)cc2)n1 [Compound 1.74, (S)-4-ethyl-3-(4-methyl-6-((S)-1-(4-(pyridin-3-yloxy)phenyl)ethylamino)-1,3,5-triazin-2-yl)oxazolidin-2-one]
> 30 µM	CC[C@H]1COC(=O)N1c1nc(C)nc(N[C@@H](C)c2ccc(C(=O)Nc3ccccc3)cc2)n1 [Compound 1.103, 4-((S)-1-(4-((S)-4-ethyl-2-oxooxazolidin-3-yl)-6-methyl-1,3,5-triazin-2-ylamino)ethyl)-N-phenylbenzamide]
2.07 µM	CC[C@H]1COC(=O)N1c1nc(C)nc(NCc2cc3cc(Cl)ccc3[nH]c2=O)n1 [Compound 1.57, (S)-3-(4-((6-chloro-2-oxo-1,2-dihydroquinolin-3-yl)methylamino)-6-methyl-1,3,5-triazin-2-yl)-4-ethyloxazolidin-2-one]
8.82 µM	CC[C@H]1COC(=O)N1c1nc(C)nc(N[C@@H](C)c2ccc(Oc3ccc(Cl)cc3)nc2OC)n1 [Compound 1.87, (S)-3-(4-((S)-1-(6-(4-chlorophenoxy)-2-methoxypyridin-3-yl)ethylamino)-6-methyl-1,3,5-triazin-2-yl)-4-ethyloxazolidin-2-one]
2.72 µM	CC[C@H]1COC(=O)N1c1nc(C)nc(N[C@H](C)c2ccc(Oc3ccc(F)cc3Br)cc2)n1 [Compound 1.79, (S)-3-(4-((R)-1-(4-(2-bromo-4-fluorophenoxy)phenyl)ethylamino)-6-methyl-1,3,5-triazin-2-yl)-4-ethyloxazolidin-2-one]
2.65 µM	Cc1nc(N[C@@H](C)c2ccc(Oc3ccccc3)cc2)nc(N2C(=O)OC[C@@H]2C)n1 [Compound 1.65, (S)-4-methyl-3-(4-methyl-6-((S)-1-(4-phenoxyphenyl)ethylamino)-1,3,5-triazin-2-yl)oxazolidin-2-one]
> 30 µM	CC[C@H]1COC(=O)N1c1nc(C)nc(N[C@H](C)c2cc3ccccc3[nH]c2=O)n1 [Compound 1.46, (S)-4-ethyl-3-(4-methyl-6-((R)-1-(2-oxo-1,2-dihydroquinolin-3-yl)ethylamino)-1,3,5-triazin-2-yl) oxazolidin-2-one]
> 30 µM	C[C@@H](Nc1ncnc(N2C(=O)OC[C@@H]2C)n1)c1ccc(Oc2ccccc2)cc1 [Compound 1.17, (S)-4-methyl-3-(4-((R)-1-(4-phenoxyphenyl)ethylamino)-1,3,5-triazin-2-yl)oxazolidin-2-one]
10.2 µM	CC[C@H]1COC(=O)N1c1nc(C)nc(N[C@H](C)c2ccc(Oc3cccnc3C(F)(F)F)cc2)n1 [Compound 1.80, (S)-4-ethyl-3-(4-methyl-6-((R)-1-(4-(2-(trifluoromethyl)pyridin-3-yloxy)phenyl)ethylamino)-1,3,5-triazin-2-yl)oxazolidin-2-one]
1.21 µM	CC[C@H]1COC(=O)N1c1nc(C)nc(N[C@@H](C)c2cc(C)c(-c3ccnc(C(F)(F)F)c3)cn2)n1 [Compound 1.54, (S)-4-ethyl-3-(4-methyl-6-((S)-1-(4-methyl-2′-(trifluoromethyl)-3,4′-bipyridin-6-yl)ethylamino)-1,3,5-triazin-2-yl)oxazolidin-2-one]
2.4 µM	CC[C@H]1COC(=O)N1c1nc(N[C@@H](C)c2ccc(Oc3ccccc3)cc2)nc(N(C)C)n1 [Compound 1.63, (S)-3-(4-(dimethylamino)-6-((S)-1-(4-phenoxyphenyl)ethylamino)-1,3,5-triazin-2-yl)-4-ethyloxazolidin-2-one]
13.6 µM	CC[C@H]1COC(=O)N1c1nc(C)nc(N[C@@H](C)c2ccc3c(-c4ccccc4)cn(C)c3c2)n1 [Compound 1.101, (S)-4-ethyl-3-(4-methyl-6-((S)-1-(1-methyl-3-phenyl-1H-indol-6-yl)ethylamino)-1,3,5-triazin-2-yl)oxazolidin-2-one]
> 30 µM	CC(C)[C@H]1COC(=O)N1c1ncnc(N[C@H](C)c2cc3cc(Cl)ccc3[nH]c2=O)n1 [Compound 1.22, (S)-3-(4-((R)-1-(6-chloro-2-oxo-1,2-dihydroquinolin-3-yl)ethylamino)-1,3,5-triazin-2-yl)-4-isopropyloxazolidin-2-one]
> 30 µM	CC[C@H]1COC(=O)N1c1nc(C)nc(N[C@H](C)c2ccc(CN3CCN(C(C)=O)CC3)cc2)n1 [Compound 1.99, (S)-3-(4-((R)-1-(4-((4-acetylpiperazin-1-yl)methyl)phenyl)ethylamino)-6-methyl-1,3,5-triazin-2-yl)-4-ethyloxazolidin-2-one]
6.83 µM	CC[C@H]1COC(=O)N1c1nc(C)nc(N[C@H](C)c2cc3cc(Cl)c(OC)cc3[nH]c2=O)n1 [Compound 1.43, (S)-3-(4-((R)-1-(6-chloro-7-methoxy-2-oxo-1,2-dihydroquinolin-3-yl)ethylamino)-6-methyl-1,3,5-triazin-2-yl)-4-ethyloxazolidin-2-one]
1.27 µM	CC[C@H]1COC(=O)N1c1nc(C)nc(N[C@@H](C)c2cc3cc(C)ccc3[nH]c2=O)n1 [Compound 1.108, (S)-4-ethyl-3-(4-methyl-6-((S)-1-(6-methyl-2-oxo-1,2-dihydroquinolin-3-yl)ethylamino)-1,3,5-triazin-2-yl)oxazolidin-2-one]
> 30 µM	CC[C@H]1COC(=O)N1c1nc(C)nc(N[C@H](C)c2ccc(OCc3ccccc3)cc2)n1 [Compound 1.72, (S)-3-(4-((R)-1-(4-(benzyloxy)phenyl)ethylamino)-6-methyl-1,3,5-triazin-2-yl)-4-ethyloxazolidin-2-one]
3.18 µM	CC[C@H]1COC(=O)N1c1nc(C)nc(N[C@@H](C)c2cn3cc(Br)ccc3n2)n1 [Compound 1.47, (S)-3-(4-((S)-1-(6-bromoimidazo[1,2-a]pyridin-2-yl)ethylamino)-6-methyl-1,3,5-triazin-2-yl)-4-ethyloxazolidin-2-one]

Source: patent US20200206233A1 (INTEGRAL BIOSCIENCES PRIVATE LIMITED, priority 2018, published 2020)
